Patent US10105357B2, “Indication of antibiotic drugs for preparation of cancer inhibition pharmaceutical composition” (LAUNX BIOMEDICAL CO., LTD., priority 2014, dated 2018)
Read-outs that look alike come from different tables or passages of the source.

Legend:
cancer cell lines = test: Cell viability analysis (WST-1) on cancer cell lines; format: cell-based, human; settings: drug 10 μM, 72 hours, WST-1; Table 3
[1] = tested on: HI650 (Lung Adenocarcinoma); test: Cell viability analysis, lung cancer HI650; format: cell-based, human; settings: for viability at 10 µM: Homo sapiens
[2] = tested on: A549 (Lung Adenocarcinoma); test: Cell viability analysis, lung cancer A549; format: cell-based, human; settings: for viability at 10 µM: Homo sapiens, A549
[3] = tested on: AGS (Gastric Adenocarcinoma); test: Cell viability analysis, gastric cancer AGS; format: cell-based, human; settings: for viability at 10 µM: Homo sapiens
[4] = tested on: MKN-45 (Gastric Adenocarcinoma); test: Cell viability analysis, gastric cancer MKN-45; format: cell-based, human; settings: for viability at 10 µM: Homo sapiens, MKN-45
[5] = tested on: HepG2 (Hepatocellular Carcinoma); test: Cell viability analysis, hepatic cancer HepG2; format: cell-based, human; settings: for viability at 10 µM: Homo sapiens, HepG2
[6] = tested on: Hep3B (hepatocellular carcinoma); test: Cell viability analysis, hepatic cancer Hep3B; format: cell-based, human
[7] = tested on: LoVo (Colorectal Adenocarcinoma); test: Cell viability analysis, colon cancer LoVo; format: cell-based, human; settings: for viability at 10 µM: Homo sapiens, LoVo
[8] = tested on: A375 (Amelanotic Melanoma); test: Cell viability analysis, skin cancer A375; format: cell-based, human; settings: for viability at 10 µM: Homo sapiens
[9] = tested on: BCC (basal cell carcinoma); test: Cell viability analysis, skin cancer BCC; format: cell-based, human
[10] = tested on: HeLa (Cervix Adenocarcinoma); test: Cell viability analysis, cervical cancer HeLa; format: cell-based, human; settings: for viability at 10 µM: Homo sapiens, HeLa
[11] = tested on: C-33A (Cervical carcinoma); test: Cell viability analysis, cervical cancer C-33A; format: cell-based, human
[12] = tested on: PC3 (p53−) (Prostate Adenocarcinoma); test: Cell viability analysis, prostate cancer PC3; format: cell-based, human; settings: for viability at 10 µM: Homo sapiens
[13] = tested on: TSGH-8301 (Urinary Bladder Carcinoma); test: Cell viability analysis, bladder cancer TSGH-8301; format: cell-based, human; settings: for viability at 10 µM: Homo sapiens
T24 = test: Cell viability analysis, bladder cancer T24; format: cell-based, human
[14] = tested on: MCF7 (Mammary Gland, Adenocarcinoma); test: Cell viability analysis, breast cancer MCF7; format: cell-based, human; settings: for viability at 10 µM: Homo sapiens
[15] = tested on: MDA-MB-231 (Mammary Gland, Adenocarcinoma); test: Cell viability analysis, breast cancer MDA-MB-231; format: cell-based, human
BxPC-3 = test: Cell viability analysis, pancreatic cancer BxPC-3; format: cell-based, human
AsPC-1 = test: Cell viability analysis, pancreatic cancer AsPC-1; format: cell-based, human
NIH: OVCAR-3 = test: Cell viability analysis, ovarian cancer NIH: OVCAR-3; format: cell-based, human
TOV-21G = test: Cell viability analysis, ovarian cancer TOV-21G; format: cell-based, human
[16] = tested on: SAS (Tongue squamous cell carcinoma); test: Cell viability analysis, tongue cancer SAS; format: cell-based, human
U-2OS = test: Cell viability analysis, osteosarcoma U-2OS; format: cell-based, human
[17] = tested on: 786-O (Renal adenocarcinoma); test: Cell viability analysis, renal cancer 786-O; format: cell-based, human
[18] = tested on: HCT116 (p53+) (Colorectal Carcinoma)
[19] = tested on: HL-60 (Acute Promyelocytic Leukemia); test: Cell viability analysis, leukemia HL-60; format: cell-based, human; settings: Homo sapiens, HL-60; drug 10 μM, 72 hours, WST-1, OD450 nm; read-out: cell viability (survival rate), HL-60

`Cc1cc(C2CCCCC2)n(O)c(=O)c1.NCCO` [Ciclopirox ethanolamine] was tested, and the “inhibition effect on different cancer cell lines” value (cancer cell lines) was “significant inhibition effect”, the “The results of antibiotic drug inhibiting cancer cell lines (cell viability analysis), H1650” value [1] was 53.76 and the “The results of antibiotic drug inhibiting cancer cell lines (cell viability analysis), A549” value [2] was 23.67. The “The results of antibiotic drug inhibiting cancer cell lines (cell viability analysis), AGS” value [3] was 36.59, the “The results of antibiotic drug inhibiting cancer cell lines (cell viability analysis), MKN-45” value [4] was 72.97 and the “The results of antibiotic drug inhibiting cancer cell lines (cell viability analysis), HepG2” value [5] was 102.4. The “The results of antibiotic drug inhibiting cancer cell lines (cell viability analysis), Hep3B” value [6] was 48.66, the “The results of antibiotic drug inhibiting cancer cell lines (cell viability analysis), LoVo” value [7] was 65.53 and the “The results of antibiotic drug inhibiting cancer cell lines (cell viability analysis), A375” value [8] was 21.76. For the same compound, the “The results of antibiotic drug inhibiting cancer cell lines (cell viability analysis), BCC” value [9] was 29.08, the “The results of antibiotic drug inhibiting cancer cell lines (cell viability analysis), HeLa” value [10] was 41.02 and the “The results of antibiotic drug inhibiting cancer cell lines (cell viability analysis), C-33A” value [11] was 42.12. For the same compound, the “The results of antibiotic drug inhibiting cancer cell lines (cell viability analysis), PC-3” value [12] was 54.81, the “The results of antibiotic drug inhibiting cancer cell lines (cell viability analysis), TSGH-8301” value [13] was 43.63 and the “The results of antibiotic drug inhibiting cancer cell lines (cell viability analysis), T24” value (T24) was 41.2. The “The results of antibiotic drug inhibiting cancer cell lines (cell viability analysis), MCF-7” value [14] was 53.67, the “The results of antibiotic drug inhibiting cancer cell lines (cell viability analysis), MDA-MB231” value [15] was 48.29 and the “The results of antibiotic drug inhibiting cancer cell lines (cell viability analysis), BxPC-3” value (BxPC-3) was 47.7. The “The results of antibiotic drug inhibiting cancer cell lines (cell viability analysis), AsPC-1” value (AsPC-1) was 46.57, the “The results of antibiotic drug inhibiting cancer cell lines (cell viability analysis), NIH-OVCAR-3” value (NIH: OVCAR-3) was 66.99 and the “The results of antibiotic drug inhibiting cancer cell lines (cell viability analysis), TOV-21G” value (TOV-21G) was 28.95. For the same compound, the “The results of antibiotic drug inhibiting cancer cell lines (cell viability analysis), SAS” value [16] was 31.98, the “The results of antibiotic drug inhibiting cancer cell lines (cell viability analysis), U2OS” value (U-2OS) was 51.75 and the “The results of antibiotic drug inhibiting cancer cell lines (cell viability analysis), 786-O” value [17] was 18.27. For the same compound, the viability [18] was 29.5%.

For `CCC[C@H](NC(=O)[C@@H]1[C@H]2CCC[C@H]2CN1C(=O)[C@@H](NC(=O)[C@@H](NC(=O)c1cnccn1)C1CCCCC1)C(C)(C)C)C(=O)C(=O)NC1CC1` [Telaprevir (VX-950), Telaprevir], the viability at 10 µM ([1]; NCI-H1650, 72 h, H1650, repeated experiment, read-out: The results of antibiotic drug inhibiting cancer cell lines (cell viability analysis), H1650) was 107%, the viability at 10 µM ([1]; NCI-H1650, drug 10 μM, 72 hours, WST-1, OD450 nm, read-out: cell viability (survival rate), H1650) was 51.6% and the viability at 10 µM ([2]; 72 h, repeated experiment, read-out: The results of antibiotic drug inhibiting cancer cell lines (cell viability analysis), A549) was 80.4%. It also gave a viability at 10 µM ([2]; drug 10 μM, 72 hours, WST-1, OD450 nm, read-out: cell viability (survival rate), A549) of 49.3%, a viability at 10 µM ([3]; 72 h, AGS, repeated experiment, read-out: The results of antibiotic drug inhibiting cancer cell lines (cell viability analysis), AGS) of 111% and a viability at 10 µM ([3]; drug 10 μM, 72 hours, WST-1, OD450 nm, read-out: cell viability (survival rate), AGS) of 49.2%. It also gave a viability at 10 µM ([4]; 72 h, repeated experiment, read-out: The results of antibiotic drug inhibiting cancer cell lines (cell viability analysis), MKN-45) of 107%, a viability at 10 µM ([4]; drug 10 μM, 72 hours, WST-1, OD450 nm, read-out: cell viability (survival rate), MKN-45) of 48% and a viability at 10 µM ([5]; 72 h, repeated experiment, read-out: The results of antibiotic drug inhibiting cancer cell lines (cell viability analysis), HepG2) of 114%. For the same compound, the viability at 10 µM ([5]; drug 10 μM, 72 hours, WST-1, OD450 nm, read-out: cell viability (survival rate), HepG2) was 100%, the viability at 10 µM ([6]; Homo sapiens, Hep3B, 72 h, read-out: The results of antibiotic drug inhibiting cancer cell lines (cell viability analysis), Hep3B) was 121% and the viability at 10 µM ([7]; 72 h, repeated experiment, read-out: The results of antibiotic drug inhibiting cancer cell lines (cell viability analysis), LoVo) was 87%. The viability at 10 µM ([7]; drug 10 μM, 72 hours, WST-1, OD450 nm, read-out: cell viability (survival rate), LoVo) was 73.7%, the viability at 10 µM ([8]; A-375, 72 h, A375, repeated experiment, read-out: The results of antibiotic drug inhibiting cancer cell lines (cell viability analysis), A375) was 105% and the viability at 10 µM ([8]; A-375, drug 10 μM, 72 hours, WST-1, OD450 nm, read-out: cell viability (survival rate), A375) was 131%. The viability at 10 µM ([9]; Homo sapiens, 72 h, read-out: The results of antibiotic drug inhibiting cancer cell lines (cell viability analysis), BCC) was 92.5%, the viability at 10 µM ([10]; 72 h, repeated experiment, read-out: The results of antibiotic drug inhibiting cancer cell lines (cell viability analysis), HeLa) was 92.6% and the viability at 10 µM ([10]; drug 10 μM, 72 hours, WST-1, OD450 nm, read-out: cell viability (survival rate), HeLa) was 84%. For the same compound, the viability at 10 µM ([11]; Homo sapiens, C-33-A, 72 h, read-out: The results of antibiotic drug inhibiting cancer cell lines (cell viability analysis), C-33A) was 102%, the viability at 10 µM ([12]; 72 h, PC-3, repeated experiment, read-out: The results of antibiotic drug inhibiting cancer cell lines (cell viability analysis), PC-3) was 89.2% and the viability at 10 µM ([12]; drug 10 μM, 72 hours, WST-1, OD450 nm, read-out: cell viability (survival rate), PC3) was 50%. The viability at 10 µM ([13]; 72 h, TSGH-8301, repeated experiment, read-out: The results of antibiotic drug inhibiting cancer cell lines (cell viability analysis), TSGH-8301) was 103%, the viability at 10 µM ([13]; drug 10 μM, 72 hours, WST-1, OD450 nm, read-out: cell viability (survival rate), TSGH) was 50.2% and the viability at 10 µM (T24; Homo sapiens, T-24, 72 h, read-out: The results of antibiotic drug inhibiting cancer cell lines (cell viability analysis), T24) was 115%. The viability at 10 µM ([14]; MCF7, 72 h, MCF-7, repeated experiment, read-out: The results of antibiotic drug inhibiting cancer cell lines (cell viability analysis), MCF-7) was 76.4%, the viability at 10 µM ([14]; MCF7, drug 10 μM, 72 hours, WST-1, OD450 nm, read-out: cell viability (survival rate), MCF7) was 61.6% and the viability at 10 µM ([15]; Homo sapiens, MDA-MB-231, 72 h, read-out: The results of antibiotic drug inhibiting cancer cell lines (cell viability analysis), MDA-MB231) was 95.6%. The viability at 10 µM (BxPC-3; Homo sapiens, BXPC-3, 72 h, read-out: The results of antibiotic drug inhibiting cancer cell lines (cell viability analysis), BxPC-3) was 63.9%, the viability at 10 µM (AsPC-1; Homo sapiens, ASPC1, 72 h, read-out: The results of antibiotic drug inhibiting cancer cell lines (cell viability analysis), AsPC-1) was 69.3% and the viability at 10 µM (NIH: OVCAR-3; Homo sapiens, OVCAR-3, 72 h, read-out: The results of antibiotic drug inhibiting cancer cell lines (cell viability analysis), NIH-OVCAR-3) was 95.6%. The viability at 10 µM (TOV-21G; Homo sapiens, TOV21G, 72 h, read-out: The results of antibiotic drug inhibiting cancer cell lines (cell viability analysis), TOV-21G) was 81.6%, the viability at 10 µM ([16]; Homo sapiens, 72 h, read-out: The results of antibiotic drug inhibiting cancer cell lines (cell viability analysis), SAS) was 67.6% and the viability at 10 µM (U-2OS; Homo sapiens, U2OS, 72 h, read-out: The results of antibiotic drug inhibiting cancer cell lines (cell viability analysis), U2OS) was 63.4%. For the same compound, the viability at 10 µM ([17]; Homo sapiens, 786-0, 72 h, read-out: The results of antibiotic drug inhibiting cancer cell lines (cell viability analysis), 786-O) was 94.8%, the viability at 10 µM [19] was 111% and the viability [18] was 93.6%.
